Assay results from paper PMC11062894, “Protein-based bandpass filters for controlling cellular signaling with chemical inputs” (Nature Chemical Biology, 2023).
Values joined by “and” are separate entries in the source; they are usually repeats but may differ in a detail not shown here. Identical values can stand only once.

Test system: GEMS receptors with CBPA11 (BclXL–LD3 and BclXLhigh variants), STAT3-driven SEAP in HEK293T cells
Assay: GEMS SEAP reporter assay, CBPA11 (BclXLhigh, LD3-v and BclXL-v variants) with A-1155463
Assay type: cell-based
Set-up: key to Raw data (SEAP) / SEAP, replicate values / Raw data of Figure 5b / Raw data Figure 5e / Raw data of Independent repeat of CBPA11-v1 vs CBPA11-v1-LD3v3 / Raw data of Independent repeat of CBPA11-v3 vs CBPA11-v3-LD3v3 / Raw data of Figure 5b, CBPA11-v1-LD3v3 (SEAP reporter raw value, single replicate) / Raw data of Figure 5b, CBPA11-v1 (SEAP reporter raw value, single replicate): SEAP activity in U/L in culture supernatant
Text: To rationally design a CBP responding to a chemical input, we used BclXL as the druglow receptor, LD3 as the designed binder and a designed BclXL variant as the drughigh receptor (referred to as BclXLhigh) to construct a CBP responsive to BclXL inhibitors (Fig. 4a). To design BclXLhigh, we used a multistate design computational protocol described elsewhere[26] […] Thus, BclXLhigh-v(1–3) were chosen as the functional drughigh receptors, resulting in three A-1155463-controlled CBPs (referred to as CBPA11-v(1–3)) (Fig. 4c–e).
HEK293T cells were seeded in a 96-well plate 24 h before transfection. The transfection mix in each well consisted of 3 ng of constitutive human CMV promoter driven mammalian STAT3 expression vector (PhCMV-STAT3-pA), 30 ng of STAT3-induced reporter expression (OStat3-PhCMVmin-SEAP-pA) and 50 ng of expression vectors for each GEMS receptor chain (PSV40-IgK-(drughigh receptor)-EpoRm-IL-6RBm-pA and PSV40-IgK-(druglow receptor-GGGGSX3-LD3)-EpoRm-IL-6RBm-pA). For the specific drughigh receptor and druglow receptor used in the different cellular assays, they are indicated as wild type or with mutations. Then, plasmid DNA was mixed with 50 μl opti-MEM (Thermo Fisher) and 600 ng of polyethyleneimine (Polysciences, catalog no. 24765-1). For drug treatment experiments, drugs were added 12 h post-transfection and incubated with cells for 24 h before the SEAP reporter detection assay.
SEAP activity (U l^−1) in cell culture supernatants was quantified by kinetic measurements at 405 nm (1 minute per measurement for 30 cycles) of absorbance increase due to phosphatase-mediated hydrolysis of para-nitrophenyl phosphate (pNPP).
Binding affinities of SPR drug competition assays were calculated using three-parameter nonlinear regression in GraphPad Prism (v.8.3.0). Representative data of cell assays are presented as individual values and mean values (bars). n = 3 refers to biological replicates. All IC50 or EC50 values of cell assays reported were calculated using four-parameter nonlinear regression ± s.d. Bandpass features of cutoff concentrations and Bandwidth90% were estimated based on the curve fitted using bell-shaped curve nonlinear regression in GraphPad Prism (v.8.3.0). […]
Supplementary Figure 4: Design, screening and validation of BclXLhigh variants. a) Screening of BclXLhigh variants in the GEMS platform. […]
Dissociation constant measurement of BclXLhigh-v(1-3) and LD3. Equilibrium curves are fitted using […]
BclXLhigh-v1 (purple), BclXLhigh-v2 (blue), […]
a) Bcl2high-based bandpass filter designs were developed and to respond to different concentrations of […]
corresponding inhibitor. c) Screening of Bcl2high-based bandpass filter variants in the GEMS platform.
The designed binder LD3 was fused to the druglow-receptor (PSV40-IgK-Bcl2-LD3-EpoRm-IL-6RBm-pA) in one EpoR chain and Bcl2high variants with the insensitive Bcl2 (iBcl2) as control in the other EpoR chain (PSV40-IgK-Bcl2high-EpoRm-IL-6RBm-pA). HEK293T cells were transfected with indicated […]
the mean of six biological replicates ± s.d., overlaid with a scatter dot plot of the original data points.
(1 picture or pasted object on this page, not shown here)
Supplementary Figure 6: Binding affinities and drug resistances of Bcl2high-v(2,4,5) assessed by […]
a) Measurement of dissociation constants for Bcl2high-v(2,4,5) and LD3 interactions. Equilibrium curves […]
Bcl2high-v(2,4,5) measured by SPR. 5 μM of Bcl2 or indicated variants were mixed with 10 μM of […]
Bcl2high-v2 (red), Bcl2high-v4
Supplementary Figure 7: Screening of LD3 variants in CBPA11-v(1-3) and raw data of CBPA11-v(1,3) with LD3-v3 variant. a-c) Screening of LD3 and LD3-v(1-3) variants in complex with BclXL for more sensitive CBPA11-v1 (a), CBPA11-v2 (b), CBPA11-v3 (c) in the GEMS platform. The LD3 variants replaced the role of LD3 (PSV40-IgK-BclXL-LD3-v(1-3)-EpoRm-IL-6RBm-pA) in one EpoR chain and BclXLhigh-v(1-3) in the other EpoR chain (PSV40-IgK-BclXLhigh-V(1-3)-EpoRm-IL-6RBm-pA). HEK293T cells were transfected with […]

[1] = CBPA11-v1-LD3v3, A-1155463 1 nM
[2] = CBPA11-v1-LD3v3, A-1155463 3.18 nM
[3] = CBPA11-v1-LD3v3, A-1155463 10 nM
[4] = CBPA11-v1-LD3v3, A-1155463 31.8 nM
[5] = CBPA11-v1-LD3v3, A-1155463 100 nM
[6] = CBPA11-v1-LD3v3, A-1155463 318 nM
[7] = CBPA11-v1-LD3v3, A-1155463 1000 nM
[8] = CBPA11-v1-LD3v3, A-1155463 3180 nM
[9] = CBPA11-v1-LD3v3, A-1155463 10000 nM

CN(C)CC#Cc1ccc(OCCCc2sc(N3CCc4cccc(C(=O)Nc5nc6ccccc6s5)c4C3)nc2C(=O)O)c(F)c1 [A-1155463]
Normalized data of Figure 5b [1]: 12.3584 and 11.9384 and 10.5903
Raw data of Figure 5b [1]: 17.44 and 15.4815 and 15.2319
Raw data of Independent repeat of CBPA11-v1 vs CBPA11-v1-LD3v3 [1]: 31.801 and 28.5095 and 29.309
Raw data of Independent repeat of CBPA11-v1 vs CBPA11-v1-LD3v3 (CBPA11-v1-LD3v3, A-1155463 3.16 nM): 34.9091 and 28.121 and 21.957
Normalized data of Figure 5b [2]: 13.5394 and 12.5226 and 10.9319
Raw data of Figure 5b [2]: 19.1065 and 16.239 and 15.7232
Normalized data of Figure 5b [3]: 25.1514 and 28.7722 and 29.2973
Raw data of Figure 5b [3]: 35.4931 and 37.3111 and 42.1378
Raw data of Independent repeat of CBPA11-v1 vs CBPA11-v1-LD3v3 [3]: 179.972 and 131.844 and 140.391
Raw data of Independent repeat of CBPA11-v1 vs CBPA11-v1-LD3v3 (CBPA11-v1-LD3v3, A-1155463 31.6 nM): 226.429 and 187.26 and 191.409
Normalized data of Figure 5b [4]: 78.9386 and 88.4215 and 71.2191
Raw data of Figure 5b [4]: 111.396 and 114.663 and 102.433
Normalized data of Figure 5b [5]: 100
Raw data of Figure 5b [5]: 141.118 and 129.678 and 143.828
Raw data of Independent repeat of CBPA11-v1 vs CBPA11-v1-LD3v3 [5]: 335.207 and 287.921 and 227.786
Raw data of Independent repeat of CBPA11-v1 vs CBPA11-v1-LD3v3 (CBPA11-v1-LD3v3, A-1155463 316 nM): 270.923 and 196.943 and 173.263
Normalized data of Figure 5b [6]: 62.5942 and 62.3431 and 56.6992
Raw data of Figure 5b [6]: 88.3315 and 80.8452 and 81.5497
Normalized data of Figure 5b [7]: 29.9151 and 30.048 and 29.0586
Raw data of Figure 5b [7]: 42.2154 and 38.9656 and 41.7945
Raw data of Independent repeat of CBPA11-v1 vs CBPA11-v1-LD3v3 [7]: 123.233 and 79.9582 and 97.1187
Raw data of Independent repeat of CBPA11-v1 vs CBPA11-v1-LD3v3 (CBPA11-v1-LD3v3, A-1155463 3160 nM): 45.1078 and 32.2032 and 26.5323
Normalized data of Figure 5b [8]: 11.3098 and 14.9107 and 12.4987
Raw data of Figure 5b [8]: 15.9601 and 19.3359 and 17.9766
Normalized data of Figure 5b [9]: 8.9981 and 9.291 and 5.288
Raw data of Figure 5b [9]: 12.6979 and 12.0483 and 7.606
Raw data of Independent repeat of CBPA11-v1 vs CBPA11-v1-LD3v3 [9]: 23.0011 and 17.3094 and 15.2043
Raw data of Independent repeat of CBPA11-v3 vs CBPA11-v3-LD3v3 (CBPA11-v3, A-1155463 0.01 nM): 26.5862 and 23.5891 and 24.9373
Normalized data Figure 5e (CBPA11-v3, A-1155463 1 nM): 14.7288 and 13.7384 and 12.9495
Normalized data of Figure 5b (CBPA11-v3, A-1155463 1 nM): 2.438 and 2.3416 and 2.8403
Raw data of Figure 5b (CBPA11-v3, A-1155463 1 nM): 13.0926 and 12.3286 and 14.9355
Raw data of Independent repeat of CBPA11-v3 vs CBPA11-v3-LD3v3 (CBPA11-v3, A-1155463 1 nM): 77.8998 and 72.2772 and 68.2722
Raw data of Independent repeat of CBPA11-v3 vs CBPA11-v3-LD3v3 (CBPA11-v3, A-1155463 3.16 nM): 101.26 and 74.5174 and 69.017
Normalized data Figure 5e (CBPA11-v3, A-1155463 3.18 nM): 19.1455 and 14.1642 and 13.0908
Normalized data Figure 5e (CBPA11-v3, A-1155463 10 nM): 52.8574 and 45.1451 and 43.5321
Normalized data of Figure 5b (CBPA11-v3, A-1155463 10 nM): 22.9212 and 24.7467 and 27.0042
Raw data of Figure 5b (CBPA11-v3, A-1155463 10 nM): 123.11 and 130.292 and 142
Raw data of Independent repeat of CBPA11-v3 vs CBPA11-v3-LD3v3 (CBPA11-v3, A-1155463 10 nM): 279.56 and 237.506 and 229.509
Raw data of Independent repeat of CBPA11-v3 vs CBPA11-v3-LD3v3 (CBPA11-v3, A-1155463 31.6 nM): 420.603 and 418.534 and 369.593
Normalized data Figure 5e (CBPA11-v3, A-1155463 31.8 nM): 79.525 and 79.5547 and 70.1024
Normalized data of Figure 5b (CBPA11-v3, A-1155463 31.8 nM): 52.5804 and 56.6221 and 62.0483
Raw data of Figure 5b (CBPA11-v3, A-1155463 31.8 nM): 282.41 and 298.117 and 326.277
Normalized data Figure 5e (CBPA11-v3, A-1155463 100 nM): 93.7695 and 93.9386 and 100
Normalized data of Figure 5b (CBPA11-v3, A-1155463 100 nM): 84.9271 and 84.8554 and 85.7543
Raw data of Figure 5b (CBPA11-v3, A-1155463 100 nM): 456.144 and 446.765 and 450.933
Normalized data Figure 5e (CBPA11-v3, A-1155463 318 nM): 100 and 99.7629
Normalized data of Figure 5b (CBPA11-v3, A-1155463 318 nM): 100
Raw data of Figure 5b (CBPA11-v3, A-1155463 318 nM): 537.1 and 526.502 and 525.843
